From PMC6270420, “Antibacterial Activity of Salicylanilide 4-(Trifluoromethyl)benzoates” (Molecules, 2013)
Values after ≈ are worked out from the molar mass of the structure shown. Read-outs that look alike come from different tables or passages of the source.

Legend:
Mtb. 9449/2006 = experiment: microbe, parasite or virus in culture; assay type: cell-based; details: Mycobacterium tuberculosis, read-out: MIC Mtb. 9449/2006
[1] = test system: Mycobacterium avium 330/88; experiment: Antimycobacterial MIC micromethod; assay type: cell-based
[2] = test system: Mycobacterium kansasii 235/80; experiment: Antimycobacterial MIC micromethod; assay type: cell-based; details: read-out: MIC M. kansasii 235/80
HepG2 cells = experiment: Cytotoxicity evaluation (CellTiter 96 MTS); assay type: cell-based, human; details: read-out: IC50 HepG2
Description: Seven esters and their parent salicylanilides with the most robust antimicrobial activity were tested for cytotoxicity in the human hepatocellular liver carcinoma cell line HepG2 (passages 21–24; ECACC, Salisbury, UK) using a standard colorimetric method measuring a tetrazolium salt reduction (CellTiter(R) 96 AQueous One Solution Assay, Promega G3580, Madison, WI, USA).
The cells were routinely cultured in Minimum Essentials Eagle Medium (Sigma-Aldrich, Darmstadt, Germany) supplemented with 10% foetal bovine serum (PAA; Biotech, Prague, Czech Republic), 1% of L-glutamine solution (Sigma-Aldrich), and non-essential amino acids solution (Sigma-Aldrich) in a humidified atmosphere containing 5% CO2 at 37 °C. For subculturing, the cells were harvested after trypsin/EDTA (Sigma-Aldrich) treatment at 37 °C. The cells treated with the tested substances were used as experimental groups. Untreated HepG2 cells were used as control groups.
The cells were seeded in density 1 × 10^4 cells per well in a 96-well plate with microscopic control. Next day, the cells were treated with each of the tested substances. […] The most of the tested compounds were prepared in incubation concentrations of 0.01–20 µM in triplicates. 4-(Trifluoromethyl)benzoic acid was applied in the concentrations of 10–4,000 µM in triplicates. The following types of controls were included: determination of 100% viability and 0% viability (the cells treated by 10% DMSO), no cell control and vehiculum controls. These checking samples were prepared in triplicates.
The treated cells were incubated together with controls at 37 °C for 24 h in 5% CO2 atmosphere. After this time reagent from the kit CellTiter 96 AQueous One Solution Cell Proliferation Assay was added. The CellTiter 96 assay is based on the reduction of tetrazolium salt MTS [3-(4,5-dimethylthiazol-2-yl)-5-(3-carboxymethoxyphenyl)-2-(4-sulfophenyl)-2H-tetrazolium] to water-soluble formazan dye by metabolically active cells. The reduction of the reagent is attributed to availability of NADH or NADPH. The decline in levels of these metabolically important compounds in the cell causes that the production of formazan is reduced. The tested plate was incubated for 2 h at 37 °C and 5% CO2 and after this time, the absorbance was recorded at 490 nm using a 96-well plate reader (TECAN, Infinite M200, Grödig, Austria).
The results were expressed as inhibitory concentration which is necessary to inhibit cell viability to 50% from the maximal (control) viability (IC50). A standard toxicological parameter IC50 was calculated in each of the tested substances using GraphPad Prism software (version 5.02; GraphPad Software Inc., San Diego, CA, USA).

Mtb. 53/2009 = experiment: microbe, parasite or virus in culture; assay type: cell-based; details: Mycobacterium tuberculosis, read-out: MIC Mtb. 53/2009
[3] = test system: Mycobacterium tuberculosis 331/88 (H37Rv); experiment: Antimycobacterial MIC micromethod, Šula's medium; assay type: cell-based; details: read-out: MIC Mtb. 331/88
Mtb. Praha 131 (XDR-TB) = experiment: microbe, parasite or virus in culture; assay type: cell-based; details: Mycobacterium tuberculosis, read-out: MIC Mtb. Praha 131 (XDR-TB)
[4] = test system: M. kansasii 6509/96 (clinically isolated strain); experiment: Antimycobacterial MIC micromethod; assay type: cell-based; details: Mycobacterium kansasii, read-out: MIC M. kansasii 6509/96
Mtb. 7357/1988 = experiment: microbe, parasite or virus in culture; assay type: cell-based; details: Mycobacterium tuberculosis, read-out: MIC Mtb. 7357/1988
Mtb. Praha 1 = experiment: microbe, parasite or virus in culture; assay type: cell-based; details: Mycobacterium tuberculosis, read-out: MIC Mtb. Praha 1
Mtb. 234/2005 = experiment: microbe, parasite or virus in culture; assay type: cell-based; details: Mycobacterium tuberculosis, read-out: MIC Mtb. 234/2005
[5] = molecular target: T1, mycobacterial isocitrate lyase (ICL1, Rv0467) (Mycobacterium tuberculosis, UniProt P9WKK7); experiment: Isocitrate lyase inhibition assay (ICL1); assay type: biochemical, Mycobacterium tuberculosis H37Rv; details: 10 μmol/L; read-out: % ICL inhibition at 10 μmol/L (± standard deviation)
T1 construct: His tag (from pET-28b(+)); made in house; host or cells: E. coli BL21(DE3), pET-28b(+) plasmid
T1 sequence (P9WKK7 1-428): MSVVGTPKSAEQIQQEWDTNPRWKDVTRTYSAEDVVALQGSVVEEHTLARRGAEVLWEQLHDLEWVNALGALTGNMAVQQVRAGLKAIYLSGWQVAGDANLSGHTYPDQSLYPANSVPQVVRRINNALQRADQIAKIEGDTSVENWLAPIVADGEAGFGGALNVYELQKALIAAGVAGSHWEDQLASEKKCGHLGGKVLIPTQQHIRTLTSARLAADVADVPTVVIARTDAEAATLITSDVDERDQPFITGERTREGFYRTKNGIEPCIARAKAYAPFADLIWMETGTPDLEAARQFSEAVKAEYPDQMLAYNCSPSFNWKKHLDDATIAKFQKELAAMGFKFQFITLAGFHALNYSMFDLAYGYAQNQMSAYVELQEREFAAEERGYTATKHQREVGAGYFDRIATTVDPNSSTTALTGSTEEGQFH

[6] = test system: methicillin-resistant Staphylococcus aureus H 5996/08 (MRSA); experiment: Antibacterial microdilution broth method; assay type: cell-based; details: read-out: MIC/IC90 MRSA H 5996/08
Description: (§1) The in vitro antibacterial activity was assayed against eight Gram-positive and Gram-negative strains: Staphylococcus aureus CCM 4516/08, methicillin-resistant Staphylococcus aureus H 5996/08 (MRSA), Staphylococcus epidermidis H 6966/08, Enterococcus sp. J 14365/08; Escherichia coli CCM 4517, Klebsiella pneumoniae D 11750/08, ESBL-positive Klebsiella pneumoniae J 14368/08, and Pseudomonas aeruginosa CCM 1961.
(§2) The microdilution broth method modified according to standard M07-A07 in Mueller-Hinton broth (HiMedia Laboratories, Mumbai, India) adjusted to pH 7.4 (±0.2) was used. The tested compounds were dissolved in DMSO to the final concentrations ranging from […]. Benzylpenicillin (penicillin G) was used as a comparative drug. Bacterial inoculum in sterile water was prepared to match 0.5 McFarland scale ([…]). The minimum inhibitory concentrations were assayed as 90% (IC90) or higher reduction of growth when compared to the control. The determination of results was performed visually and spectrophotometrically (at 540 nm). The values of MICs were determined after 24 and 48 h of incubation in the darkness at 35 °C (±0.1) in a humid atmosphere.

[7] = test system: Staphylococcus aureus CCM 4516/08; experiment: Antibacterial microdilution broth method; assay type: cell-based; details: read-out: MIC/IC90 S. aureus CCM 4516/08
Description: as §1, §2

[8] = test system: Enterococcus sp. J 14365/08; experiment: Antibacterial microdilution broth method; assay type: cell-based; details: read-out: MIC/IC90 Enterococcus sp. J 14365/08
Description: as §1, §2

[9] = test system: Escherichia coli CCM 4517; experiment: Antibacterial microdilution broth method; assay type: cell-based; details: read-out: MIC/IC90 E. coli CCM 4517
Description: as §1, §2

[10] = test system: Staphylococcus epidermidis H 6966/08; experiment: Antibacterial microdilution broth method; assay type: cell-based; details: read-out: MIC/IC90 S. epidermidis H 6966/08
Description: as §1, §2

Structure (SMILES): O=C(Oc1cc(Cl)ccc1C(=O)Nc1ccc(Cl)c(Cl)c1)c1ccc(C(F)(F)F)cc1 [1f]
- MIC (Mtb. 9449/2006; 336 h): 2 µM (≈ 0.977 µg/mL)
- MIC (Mtb. 9449/2006; 504 h): 2 µM (≈ 0.977 µg/mL)
- MIC ([1]; 330/88, 336 h, 14 d): 2 µM (≈ 0.977 µg/mL)
- MIC ([1]; 330/88, 504 h, 21 d): 8 µM (≈ 3.91 µg/mL)
- MIC ([2]; 235/80, 168 h, 7 d): 1 µM (≈ 0.489 µg/mL)
- MIC ([2]; 235/80, 336 h, 14 d): 2 µM (≈ 0.977 µg/mL)
- MIC ([2]; 235/80, 504 h, 21 d): 4 µM (≈ 1.95 µg/mL)
- IC50 (HepG2 cells; Homo sapiens, HepG2, 24 h): 4.46 µM
- MIC (Mtb. 53/2009; 336 h): 2 µM (≈ 0.977 µg/mL)
- MIC (Mtb. 53/2009; 504 h): 2 µM (≈ 0.977 µg/mL)
- MIC ([3]; 336 h, 14 d): 1 µM (≈ 0.489 µg/mL)
- MIC ([3]; 504 h, 21 d): 2 µM (≈ 0.977 µg/mL)
- MIC (Mtb. Praha 131 (XDR-TB); 336 h): 1 µM (≈ 0.489 µg/mL)
- MIC (Mtb. Praha 131 (XDR-TB); 504 h): 2 µM (≈ 0.977 µg/mL)
- MIC ([4]; 168 h, 7 d): 1 µM (≈ 0.489 µg/mL)
- MIC ([4]; 336 h, 14 d): 2 µM (≈ 0.977 µg/mL)
- MIC ([4]; 504 h, 21 d): 4 µM (≈ 1.95 µg/mL)
- MIC (Mtb. 7357/1988; 336 h): 2 µM (≈ 0.977 µg/mL)
- MIC (Mtb. 7357/1988; 504 h): 2 µM (≈ 0.977 µg/mL)
- MIC (Mtb. Praha 1; 336 h): 1 µM (≈ 0.489 µg/mL)
- MIC (Mtb. Praha 1; 504 h): 2 µM (≈ 0.977 µg/mL)
- MIC (Mtb. 234/2005; 336 h): 1 µM (≈ 0.489 µg/mL)
- MIC (Mtb. 234/2005; 504 h): 2 µM (≈ 0.977 µg/mL)
- inhibition at 10 µM [5]: 17 ± 1.6%

Structure (SMILES): O=C(Oc1ccc(Cl)cc1C(=O)Nc1ccc(F)cc1)c1ccc(C(F)(F)F)cc1 [1m]
- MIC ([1]; 330/88, 336 h, 14 d): 16 µM (≈ 7 µg/mL)
- MIC ([1]; 330/88, 504 h, 21 d): 32 µM (≈ 14 µg/mL)
- MIC ([2]; 235/80, 168 h, 7 d): 4 µM (≈ 1.75 µg/mL)
- MIC ([2]; 235/80, 336 h, 14 d): 16 µM (≈ 7 µg/mL)
- MIC ([2]; 235/80, 504 h, 21 d): 16 µM (≈ 7 µg/mL)
- MIC ([3]; 336 h, 14 d): 8 µM (≈ 3.5 µg/mL)
- MIC ([3]; 504 h, 21 d): 8 µM (≈ 3.5 µg/mL)
- MIC ([4]; 168 h, 7 d): 8 µM (≈ 3.5 µg/mL)
- MIC ([4]; 336 h, 14 d): 16 µM (≈ 7 µg/mL)
- MIC ([4]; 504 h, 21 d): 16 µM (≈ 7 µg/mL)
- MIC ([6]; 24 h): 15.6 µM (≈ 6.84 µg/mL)
- MIC ([6]; 48 h): 15.6 µM (≈ 6.84 µg/mL)
- MIC ([7]; CCM4516, 24 h): 7.81 µM (≈ 3.42 µg/mL)
- MIC ([7]; CCM4516, 48 h): 7.81 µM (≈ 3.42 µg/mL)
- MIC ([8]; SP.J14365/08, 24 h): 500 µM (≈ 219 µg/mL)
- MIC ([8]; SP.J14365/08, 48 h): > 500 µM
- MIC ([9]; CCM4517, 24 h): > 500 µM
- MIC ([9]; CCM4517, 48 h): > 500 µM
- MIC ([10]; H6966/08, 24 h): 31.2 µM (≈ 13.7 µg/mL)
- MIC ([10]; H6966/08, 48 h): > 500 µM
- inhibition at 10 µM [5]: ≥ 20%

Structure (SMILES): CC1(C)S[C@@H]2[C@H](NC(=O)Cc3ccccc3)C(=O)N2[C@H]1C(=O)O [PNC, benzylpenicillin, reference compound]
- MIC ([6]; 24 h): 62.5 µM (≈ 20.9 µg/mL)
- MIC ([6]; 48 h): 125 µM (≈ 41.8 µg/mL)
- MIC ([7]; CCM4516, 24 h): 0.98 µM (≈ 0.328 µg/mL)
- MIC ([7]; CCM4516, 48 h): 0.98 µM (≈ 0.328 µg/mL)
- MIC ([8]; SP.J14365/08, 24 h): 7.81 µM (≈ 2.61 µg/mL)
- MIC ([8]; SP.J14365/08, 48 h): 15.6 µM (≈ 5.22 µg/mL)
- MIC ([9]; CCM4517, 24 h): > 500 µM
- MIC ([9]; CCM4517, 48 h): > 500 µM
- MIC ([10]; H6966/08, 24 h): 250 µM (≈ 83.6 µg/mL)
- MIC ([10]; H6966/08, 48 h): 250 µM (≈ 83.6 µg/mL)

Structure (SMILES): O=C(Nc1ccc(Cl)c(Cl)c1)c1cc(Cl)ccc1O [SAL-1]
- IC50 (HepG2 cells; 24 h, cytotoxicity): 0.84 µM

Structure (SMILES): O=C(Nc1ccc(Cl)c(Cl)c1)c1ccc(Cl)cc1O [SAL-2]
- IC50 (HepG2 cells; 24 h, cytotoxicity): 1.8 µM

Structure (SMILES): O=C(Nc1cccc(Br)c1)c1cc(Cl)ccc1O [SAL-3]
- IC50 (HepG2 cells; 24 h, cytotoxicity): 1.54 µM

Structure (SMILES): O=C(Nc1ccc(Br)cc1)c1ccc(Cl)cc1O [SAL-4]
- IC50 (HepG2 cells; 24 h, cytotoxicity): 1.98 µM

Structure (SMILES): O=C(Nc1ccc(C(F)(F)F)cc1)c1cc(Cl)ccc1O [SAL-5, 5-chloro-2-hydroxy-N-[4-(trifluoromethyl)phenyl]benzamide]
- IC50 (HepG2 cells; Homo sapiens, HepG2, 24 h, cytotoxicity): 0.36 µM

Structure (SMILES): O=C(Nc1ccc(C(F)(F)F)cc1)c1ccc(Cl)cc1O [SAL-6]
- IC50 (HepG2 cells; 24 h, cytotoxicity): 0.69 µM

Structure (SMILES): O=C(Nc1ccc(C(F)(F)F)cc1)c1cc(Br)ccc1O [SAL-7, 5-Bromo-2-hydroxy-N-[4-(trifluoromethyl)phenyl]benzamide]
- IC50 (HepG2 cells; Homo sapiens, HepG2, 24 h): 1.67 µM
